Results published in patent publication US20250339549A1, “METHODS FOR THE DETECTION AND TREATMENT OF NON-SMALL-CELL LUNG CANCER” (Board of Regents, The University of Texas System, priority 2022, published 2025).

What was measured:
[1] = tested on: ALPP; assay: ALPP expression in cancer cell lines after drug treatment (immunoblot, immunofluorescence, flow cytometry, qPCR, surface proteomics); assay type: cell-based, human; settings: for ALPP expression after PI3K/AKT or MEK/ERK inhibition: HCC827 and H1650 (FIG. 8D: HCC827 and PC9); for ALPP expression after drug washout and re-treatment: 48 hours treatment, 48 hours without inhibitor; for ALPP and percentage of ALPP+ cells over time: one to four days, 30 nM; for ALPP induction by other EGFR inhibitors (immunoblots): EGFR-mutant H1650 and HCC827; for fold increase in ALPP expression: EGFR TKI treatment (FIG. 7D, FIG. 15B: 30 nM, 48 hours)
From the text: ALPP and ALPPL2 expression analysis in whole cell extracts and in the surfaceome compartment was done by mass spectrometry as previously described^19-23. Each dataset was normalized to the total number of spectral counts for each compartment^24.
Images were acquired in z-series on a spinning-disk confocal system.
Probe for ALPP was purchased from Thermo Fisher Scientific (Hs03046558_s1).

[2] = tested on: ALPP; settings: PC9 xenograft tumors; GSE161584; cited from earlier work
[3] = tested on: FoxO3a; assay: FoxO3a phosphorylation, localisation and transcription in LUAD cells
[4] = tested on: ALPP; assay: IHC for ALPP in tumor and normal tissues of gefitinib-treated H1650 tumor-bearing mice; assay type: in vivo, BALB/c nude mice; settings: 50 mg/kg daily for 10 days
Description: IHC staining was performed as previously described 25.

[5] = tested on: AKT (Ser473) and ERK (T202/Y204) phosphorylation; assay: Immunoblots for AKT and ERK phosphorylation in LUAD cells; assay type: cell-based, human; settings: H2291 and H1650; EGF 10 or 20 ng/mL, gefitinib 0.5 or 1 μM
[6] = tested on: ALPP promoter; assay: ChIP-qPCR for FoxO3a binding to the promoter region of ALPP gene; assay type: cell-based, human; settings: H1650 and HCC827; 1 μM, 6 hours
From the text: Subsequently, the DNA-protein complexes were enriched with Protein A/G magnetic Beads and DNA was recovered by the DNA Clean-up column.

[7] = tested on: HCC827 and PC9 cells; settings: 100 nM
[8] = tested on: HCC827 and PC9 cells; assay: Flow cytometry-based cell cycle analysis; set-up: species or system human; settings: 30 nM
[9] = tested on: ALPP; settings: cited from earlier work
[10] = EGFR mut H1650, 24- and 48-hour treatment

Molecule: CCn1cc(C(=O)O)c(=O)c2c(N)c(F)c(NC3CCCCC3)cc21 [AS1842856]
- ALPP protein expression after FoxO inhibition ([1]; LUAD cells (HCC827 and PC9), 48 hours): diminished ALPP protein expression
- effect on gefitinib-mediated ALPP upregulation ([1]; LUAD cells (HCC827 and PC9), with gefitinib, 48 hours): blunted gefitinib-mediated ALPP upregulation

Molecule: Cc1cc(C(=O)NOCCO)c(Nc2ccc(I)cc2F)n(C)c1=O [AZD8330]
- ALPP expression after PI3K/AKT or MEK/ERK inhibition ([1]; 100 nM, 48 hours): drastic induction of ALPP expression

Molecule: Nc1cc(C(F)(F)F)c(-c2cc(N3CCOCC3)nc(N3CCOCC3)n2)cn1 [NVP-BKM120]
- ALPP expression after PI3K/AKT or MEK/ERK inhibition ([1]; 100 nM, 48 hours): drastic induction of ALPP expression

Molecule: O=C(Nc1ccc2[nH]nc(-c3ccncc3)c2c1)[C@@H]1CCN(CC(=O)N2CCN(c3ccc(-c4ncccn4)cc3)CC2)C1 [SCH772984]
- ALPP expression after PI3K/AKT or MEK/ERK inhibition ([1]; 100 nM, 48 hours): drastic induction of ALPP expression

Molecule: C#Cc1cccc(Nc2ncnc3cc(OCCOC)c(OCCOC)cc23)c1 [erlotinib]
- ALPP mRNA expression in xenograft tumors [2]: increased ALPP mRNA expression in erlotinib-responding tumors compared with treatment naïve tumors

Molecule: COc1cc2ncnc(Nc3ccc(F)c(Cl)c3)c2cc1OCCCN1CCOCC1 [gefitinib]
- FoxO3a cytosol/nucleus distribution ([3]; H1650 and HCC827): reduced cytosolic FoxO3a and promoted its nuclear translocation
- phosphorylation of FoxO3a (Ser294, Ser425) ([3]; H1650 and HCC827, 30 nM, 6 hours): repressed phosphorylation of FoxO3a at Ser294 and Ser425 residues
- transcription of FOXO3A ([3]; LUAD cells): not affected
- ALPP expression (immunoblots) [1, 10]: ALPP upregulation
- surface ALPP expression (mass spectrometry, immunofluorescence) ([1]; EGFR mutant H1650 and PC9, 24- and 48-hour treatment): pronounced upregulation of surface ALPP expression
- ALPP expression (immunoblots) ([1]; EGFR wild-type, KRAS mutant H2291 and H1838): increased ALPP expression, although to a lesser extent
- surface ALPP by flow cytometry in gefitinib-resistant cells ([1]; GR HCC827 and PC9, 100 nM): majority of gefitinib-resistant cells expressed high level of ALPP
- ALPP expression in gefitinib-resistant (GR) cells ([1]; GR HCC827 and PC9, 100 nM, 48 hours): further enhanced ALPP upregulation
- ALPP upregulation in ALPP non-expressing cell lines ([1]; H1395, H1944, HCC2279, 1 μM, 48 hours): did not upregulate ALPP
- ALPP mRNA levels ([1]; H1650 and HCC827): concomitant increases in ALPP mRNA levels
- ALPP levels in ALPP-positive LUAD cell lines ([1]; H2291, H1650, H1838, H1651, 1 μM, 48 hours): exhibited elevated ALPP levels
- ALPP expression after drug washout and re-treatment ([1]; HCC827 and PC9): markedly reduced in the absence of EGFR inhibitors and was restored with the addition of inhibitors
- ALPP and percentage of ALPP+ cells over time ([1]; HCC827 and PC9): gradual and sustained increase of ALPP and percentage of ALPP^+ cells
- ALPP expression (immunoblots) ([1]; TNBC cell lines BT20 and HCC1937, 1 μM): increased ALPP expression
- tumoral ALPP surface expression (IHC) [4]: pronounced increases in tumoral ALPP surface expression
- ALPP protein staining in other tissues (IHC) ([4]; normal tissues): negative or showed no appreciable difference compared to the vehicle control
- AKT and ERK phosphorylation [5]: repressed phosphorylation of AKT and ERK
- FoxO3a binding to ALPP promoter (ChIP-qPCR) [6]: induced FoxO3a binding to ALPP promoter sequences

Molecule: CS(=O)(=O)CCNCc1ccc(-c2ccc3ncnc(Nc4ccc(OCc5cccc(F)c5)c(Cl)c4)c3c2)o1 [lapatinib]
- ALPP induction by other EGFR inhibitors (immunoblots) [1]: yielded similar results

Molecule: C=CC(=O)Nc1cc(Nc2nccc(-c3cn(C)c4ccccc34)n2)c(OC)cc1N(C)CCN(C)C [osimertinib]
- phosphorylation of EGFR and FoxO3a ([3]; HCC827 and PC9, 30 nM): suppressed the phosphorylation of EGFR and FoxO3a
- ALPP induction by other EGFR inhibitors (immunoblots) [1]: yielded similar results
- ALPP expression (immunoblots) ([1]; HCC827 and PC9, 30 nM (FIG. 8K)): increased ALPP expression
- ALPP expression after drug washout and re-treatment ([1]; HCC827 and PC9): markedly reduced in the absence of EGFR inhibitors and was restored with the addition of inhibitors
- ALPP and percentage of ALPP+ cells over time ([1]; HCC827 and PC9): gradual and sustained increase of ALPP and percentage of ALPP^+ cells
- fold increase in ALPP expression ([1]; HCC827 cells): ~60 fold
- fold increase in ALPP expression ([1]; PC9 cells): ~110 fold
- emergence of drug-resistant clones under continuous TKI treatment [7]: led to the emergence of drug-resistant clones
- cell cycle arrest in G0/G1 [8]: statistically significantly increased cell cycle arrest in G0/G1
- Ingenuity Pathway Analysis of upstream regulators ([9]; 4 LUAD cell lines, RNAseq data GSE193258): concordant activation of FoxO3a, but not FoxO1
- ALPP gene expression, single cell transcriptomics ([9]; PC9, 0, 3, 7, 14 days, GSE150949): progressive increase in ALPP gene expression
- LUAD cells expressing ALPP ([9]; PC9, day 14, GSE150949): ~50%

Molecule: EGF: epidermal growth factor, the endogenous ligand of EGFR
- ALPP expression (immunoblots) [1, 10]: reduced ALPP expression
- ALPP expression in EGF-containing growth medium ([1]; H1650 and H2291, EGF 10 or 20 ng/mL, 24 and 48 hours): drastically reduced
- AKT and ERK phosphorylation [5]: induced AKT phosphorylation at serine 473 (Ser473), and ERK phosphorylation at threonine 202 (T202) and tyrosine 204 (Y204) residues
